Results as given in article PMC7021728, “Structure of the agonist 12–HHT in its BLT2 receptor-bound state” (Scientific Reports, 2020).
Where a chain is given by its changes, count along the chain named. Like-named read-outs stand apart in the source and are kept apart here.

Tests used:
BLT2 S174^ECL2A = target: T1, BLT2 S174^ECL2A (Homo sapiens, UniProt Q9NPC1, S174A); assay: Gi protein activation catalyzed by BLT2 mutant; assay type: biochemical
T1 construct: made in house
T1 sequence (Q9NPC1 1-358 S174A): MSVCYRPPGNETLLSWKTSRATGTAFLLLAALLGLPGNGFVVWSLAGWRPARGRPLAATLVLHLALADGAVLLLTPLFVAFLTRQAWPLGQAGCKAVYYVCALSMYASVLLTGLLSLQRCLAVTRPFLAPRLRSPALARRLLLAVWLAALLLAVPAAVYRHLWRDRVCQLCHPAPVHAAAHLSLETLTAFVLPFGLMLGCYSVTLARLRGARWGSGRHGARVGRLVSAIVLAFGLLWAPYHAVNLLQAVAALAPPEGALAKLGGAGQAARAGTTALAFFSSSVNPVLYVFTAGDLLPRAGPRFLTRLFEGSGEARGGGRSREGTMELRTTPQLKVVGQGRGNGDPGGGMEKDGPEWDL
Procedure: (§1) All mutations were introduced in the wild-type BLT2 receptor by PCR-mediated mutagenesis using the QuickChange multisite-directed mutagenesis kit (Stratagene) and the wild-type BLT2 construct as a template. Mutations were confirmed by nucleotide sequencing.
(§2) Gαi2 and Gβ1γ2 were prepared as previously described. Briefly, agonist-dependent functional coupling of the purified receptor to Gαi2β1γ2 was assessed through the rate of GTPγS binding at increasing agonist concentrations determined by monitoring the relative increase in the intrinsic fluorescence ( λexcitation=300nm , λemission=345nm ) of Gαi2 (200 nM of purified G protein) in the presence of BLT2 (20 nM) in buffer containing 10 mM MOPS, pH 7.2, 130 mM NaCl, and 2 mM MgCl2 at 15 °C after the addition of 10 μM GTPγS. The data were normalized to the fluorescence maximum obtained in the presence of saturating concentrations in 12–HHT (10 μM).

BLT2 R270^7.35A = target: T2, BLT2 R270^7.35A (Homo sapiens, UniProt Q9NPC1, R270A); assay: Gi protein activation catalyzed by BLT2 mutant; assay type: biochemical; details: construct R270^7.35A
T2 construct: made in house
T2 sequence (Q9NPC1 1-358 R270A): T1 sequence (Q9NPC1 1-358 S174A) with A174S, R270A
Procedure: as §1, §2

purified BLT2 receptor = target: purified BLT2 receptor; parameters: method as in PMID 21688157; details: cited from earlier work
BLT2 R160^4.64A = target: T3, BLT2 R160^4.64A (Homo sapiens, UniProt Q9NPC1, R160A); assay: Gi protein activation catalyzed by BLT2 mutant; assay type: biochemical
T3 construct: made in house
T3 sequence (Q9NPC1 1-358 R160A): T1 sequence (Q9NPC1 1-358 S174A) with R160A, A174S
Procedure: (§3) All mutations were introduced in the wild-type BLT2 receptor by PCR-mediated mutagenesis using the QuickChange multisite-directed mutagenesis kit (Stratagene) and the wild-type BLT2 construct as a template. Mutations were confirmed by nucleotide sequencing. […] Gαi2 and Gβ1γ2 were prepared as previously described. […] The data were normalized to the fluorescence maximum obtained in the presence of saturating concentrations in 12–HHT (10 μM).

BLT2 T274^7.39A = target: T4, BLT2 T274^7.39A (Homo sapiens, UniProt Q9NPC1, T274A); assay: Gi protein activation catalyzed by BLT2 mutant; assay type: biochemical
T4 construct: made in house
T4 sequence (Q9NPC1 1-358 T274A): T1 sequence (Q9NPC1 1-358 S174A) with A174S, T274A
Procedure: as §3

BLT2 R166^ECL2A = target: T5, BLT2 R166^ECL2A (Homo sapiens, UniProt Q9NPC1, R166A); assay: Gi protein activation catalyzed by BLT2 mutant; assay type: biochemical
T5 construct: made in house
T5 sequence (Q9NPC1 1-358 R166A): T1 sequence (Q9NPC1 1-358 S174A) with R166A, A174S
Procedure: as §3

BLT2 [1] = test system: BLT2; parameters: method as in PMID 18378794; details: membrane fractions of CHO transfected by BLT2; cited from earlier work
BLT2 [2] = test system: BLT2; parameters: method as in PMID 18378794; details: cited from earlier work

CCCCC[C@H](O)/C=C/C=C/C/C=C\CCCC(=O)O [12–HHT, 12S–hydroxyheptadeca-5Z,8E,10E-trienoic acid]
EC50 (BLT2 S174^ECL2A; S174^ECL2A, read-out: EC50): 295 nM | EC50 (BLT2 S174^ECL2A; construct S174^ECL2A, given as LogEC50 (negative sign), read-out: LogEC50 (converted)): 289 nM | EC50 (BLT2 S174^ECL2A; construct S174^ECL2A, read-out: EC50): 295 nM | EC50 (BLT2 R270^7.35A): 235 nM | Kd (purified BLT2 receptor; purified BLT2 associated with amphipols in solution, in vitro): ~60 nM | bound time compared with LTB4 (in vitro off-rate constant measurements) (purified BLT2 receptor; ratio 12–HHT / LTB4): 3.6 times | effect of the mutation on ligand binding (BLT2 R160^4.64A; R160^4.64A compared to wild-type, in words): no effect | EC50 (BLT2 R160^4.64A; construct R160^4.64A): 20.5 nM | effect of the mutation on ligand binding (BLT2 T274^7.39A; T274^7.39A compared to wild-type, in words): do not impact receptor ligand properties | EC50 (BLT2 T274^7.39A; construct T274^7.39A): 27.7 nM | effect of the mutation on ligand binding (BLT2 R166^ECL2A; R166^ECL2 mutation compared to wild-type, in words): do not impact receptor ligand properties | EC50 (BLT2 R166^ECL2A; construct R166^ECL2A): 20.7 nM | half maximal effective concentration (EC50) compared to LTB4 (BLT2 [1]): about one order of magnitude lower than LTB4 | affinity for BLT2 compared to LTB4 (BLT2 [2]; in cellulo measurements): about one order of magnitude | half maximal inhibitory concentration (IC50) compared to LTB4 (BLT2 [2]; membrane fractions of CHO transfected by BLT2): about one order of magnitude lower than LTB4
